Measurements from ChEMBL document CHEMBL5576046, “Replacement of sulfonamide by sulfoximine within a helicase-primase inhibitor with restricted flexibility” (Bioorg Med Chem Lett, 2024).

Legend:
Format in all cases: functional, organism-based
Human alphaherpesvirus 2 [1] = assay: Antiviral activity against HSV-2 infected in human ARPE-19 cells assessed as inhibition of viral replication incubated for 16 hrs by fluorescence based analysis; conditions: Human alphaherpesvirus 2, ARPE-19, 16 h
Human alphaherpesvirus 2 [2] = assay: Antiviral activity against HSV-2
Human alphaherpesvirus 1 [3] = assay: Antiviral activity against HSV-1 by CPE assay
Human alphaherpesvirus 1 [4] = assay: Antiviral activity against HSV-1

IC50 (Human alphaherpesvirus 2 [1])	IC50 (Human alphaherpesvirus 2 [2]; Human alphaherpesvirus 2)	IC50 (Human alphaherpesvirus 2 [2])	IC50 (Human alphaherpesvirus 1 [3])	SMILES	other results
6 nM	–	–	–	NS(=O)(=O)c1cc2c(cc1F)CCN2C(=O)[C@@H]1Cc2ccc(-c3ccccn3)cc2C1	–
–	16 nM	–	–	Cc1nc(N(C)C(=O)[C@@H]2Cc3ccc(-c4cc(F)ccc4F)cc3C2)sc1S(N)(=O)=O	IC50 (Human alphaherpesvirus 1 [3]; Human alphaherpesvirus 1): 1 nM
37 nM	–	–	–	CS(=N)(=O)c1cc2c(cc1F)CCN2C(=O)[C@@H]1Cc2ccc(-c3ccccn3)cc2C1 (stereo partly specified)	–
48 nM	–	–	–	CS(=N)(=O)c1cc2c(cc1F)CCN2C(=O)[C@@H]1Cc2ccc(-c3cc(F)ccc3F)cc2C1 (stereo partly specified)	–
12 nM	–	–	–	NS(=O)(=O)c1cc2c(cc1F)CCN2C(=O)[C@@H]1Cc2ccc(-c3cc(F)ccc3F)cc2C1	–
–	28 nM	–	–	Cc1nc(N(C)C(=O)Cc2ccc(-c3cc(F)ccc3F)cc2)sc1S(C)(=N)=O (stereo unspecified)	IC50 (Human alphaherpesvirus 1 [4]): 19 nM
–	16000 nM	–	–	Cc1nc(N(C)C(=O)[C@H]2Cc3ccc(-c4cc(F)ccc4F)cc3C2)sc1S(N)(=O)=O	IC50 (Human alphaherpesvirus 1 [3]; Human alphaherpesvirus 1): 2000 nM
–	–	–	–	Cc1nc(N(C)C(=O)[C@@H]2Cc3ccc(-c4ccccn4)cc3C2)sc1S(N)(=O)=O	IC50 (Human alphaherpesvirus 1 [3]; Human alphaherpesvirus 1): 7 nM
–	–	25000 nM	25000 nM	Cc1nc(N(C)C(=O)C2Cc3ccc(-c4cc(F)ccc4F)cc3C2)sc1S(C)(=N)=O (stereo in doubt; 2a)	–
–	–	1250 nM	300 nM	Cc1nc(N(C)C(=O)C2Cc3ccc(-c4cc(F)ccc4F)cc3C2)sc1S(C)(=N)=O (stereo in doubt; 2b)	–
–	–	2000 nM	400 nM	Cc1nc(N(C)C(=O)C2Cc3ccc(-c4cc(F)ccc4F)cc3C2)sc1S(C)(=N)=O (stereo in doubt; 2c)	–
–	–	50000 nM	8000 nM	Cc1nc(N(C)C(=O)C2Cc3ccc(-c4cc(F)ccc4F)cc3C2)sc1S(C)(=N)=O (stereo in doubt; 2d)	–
–	20 nM	–	–	Cc1nc(N(C)C(=O)Cc2ccc(-c3ccccn3)cc2)sc1S(N)(=O)=O [PRITELIVIR]	IC50 (Human alphaherpesvirus 1 [4]): 20 nM
